Test: In vitro skin permeation study, Franz diffusion cell, with or without ultrasound (sonophoresis)
Type: in vitro ADME, human
Details: for UT60°/Non-UTGel 1 (permeation enhancement factor): Study 2, Gel 1 with 60° sonophoresis vs Gel 1 passive; for UT15°/Non-UTGel 1 (permeation enhancement factor) / UT90°/Non-UTGel 1 (permeation enhancement factor): Study 3; for UT15°/Non-UTGel 1 (permeation enhancement factor): Gel 1 with 15° sonophoresis vs Gel 1 passive; for UT90°/Non-UTGel 1 (permeation enhancement factor): Gel 1 with 90° sonophoresis vs Gel 1 passive
Description: The experimental setup to run sonophoresis (ultrasound) studies with Franz cell diffusion cells consisted of a custom-built universal generator capable of driving ultrasonic transducers in the 20 kHz-2 MHz range with electronic power up to 60 W (Voltage+/−30V, Current: 2A, duty cycle 50%) with a square waveform. The real power delivered to the transducer depended on the specific experimental conditions and is specified for each experiment. The driving waveform was delivered to the transducer through a coaxial cable having a BNC connector at one end and a custom non-coaxial connector at the transducer end.
The tranducer was piezoelectric and had either a disk shaped form (either 20 or 25 mm in diameter) or a rectangular shape 10×20 mm^2). The thickness of the transducer depended on its fundamantal frequency being inversely proportional with it. In order to prevent the liquid or the gel from perturbing the electrical connection, each transducer was encapsulated in a plastic case leaving only one side of the transducer exposed to the topical composition. The case was made out of a rigid plastic and the transducers were sealed with silicone adhesive to enable them to oscilalte more or less freely. The case also enabled the electrical connections to be isolated from the topical composition.
For sonophoresis experiments where the ultrasonic wave energy was delivered perpendicular to the skin, disk-shaped transducers were used in the encapsulation setup described above. For the angled ultrasound application the case encapsulating the ultrasonic transducer was assembled in a hinged configuration, enabling angles between 15 and 90 degrees (perpendicular). Note: an angle of 0 degrees would send the ultrasonic wave parallel with the skin surface.
In vitro skin permeation studies on 5% Ibuprofen gel compositions without ultrasound (passive diffusion), or facilitated by the application of ultrasound (sonophoresis), through human cadaver skin were performed as follows:
A skin penetration study evaluated the penetration of ibuprofen through the human skin for the inventive sample prepared as disclosed in Example 1. A commercial ibuprofen gel product, IBULEVE Ibuprofen Gel (by DDD ltd, Watford, Herts, WD18 7JJ, UK) was used as a benchmark, which contains 5% W/W ibuprofen, also IMS (Industrial Methylated Spirits), carbomer, propylene glycol, diethylamine and purified water according to the product label on its package. A well-known Franz diffusion cell method (taught in US20020006418 A1 which is hereby incorporated by reference) was used. […] A magnetic stirrer bar was added in the […]. The liquid receptor was filled with Phosphate-buffered saline (PBS) solution. Air bubbles in the […] were removed. The system was thermostated at 37° C. above a magnetic stirrer to ensure the homogeneity of the liquid receptor during the experiment. A human cadaver skin sample from a commercial tissue bank (Ohio Valley Tissue and Skin Center, Cincinnati, Ohio, dermatomed to approximately 0.4 mm) was cut to fit the glass diffusion cell and the skin was mounted on the Franz cell.
For the diffusion cells designated to be tested for passive diffusion, a test gel sample of 0.2 ml was applied on the skin surface. For the diffusion cells designated to test for sonophoresis, additional test sample (2-5 ml) was added in order to assure the entire, or at least a large portion, of the ultrasonic transducer tip was immersed by the test gel during the ultrasound treatment. The excess gel was promptly removed from the donor cell after the ultrasound treatment so that the remaining test gel was approximately 0.2 ml.
Ultrasound treatments were carried out with the following test conditions: • a) Conventional ultrasound treatment with 90 degree angle (°) between the ultrasound direction and the skin surface; • b) Angled Ultrasound treatment with less than 90 degree angle between the ultrasound direction and the skin surface. […]

UT60°/Non-UTGel 1 (permeation enhancement factor) (6 hr): approximately 2.9 fold
UT60°/Non-UTGel 1 (permeation enhancement factor) (24 hr): ~2.0 fold
UT15°/Non-UTGel 1 (permeation enhancement factor) (6 hr): approximately 3.0 fold
UT15°/Non-UTGel 1 (permeation enhancement factor) (24 hr): approximately 3.0 fold
UT90°/Non-UTGel 1 (permeation enhancement factor) (6 hr): approximately 2.3 fold
UT90°/Non-UTGel 1 (permeation enhancement factor) (24 hr): ~2.0 fold
Compound: CC(C)Cc1ccc(C(C)C(=O)O)cc1 (stereo not drawn) [ibuprofen]

Reference: patent publication US20170080198A1, “DEVICES AND METHODS FOR ENHANCING THE TOPICAL APPLICATION OF A BENEFIT AGENT” (Johnson & Johnson Consummer Inc., priority 2015, published 2017)
